This note sets out measurements from patent publication US9562035B2, “Benzamide derivative useful as FASN inhibitors for the treatment of cancer” (Janssen Pharmaceutica NV, priority 2013, dated 2017).

The target of assay [1] is T1, hFASN enzyme (full length) (Homo sapiens, UniProt P49327).
T1 construct: 10 μL hFASN enzyme (full length, 300 ng, purified in house); made in house
The experiment in a line: Fatty Acid Synthase (FASN) Inhibition Scintillation Proximity Assay. Type of assay: biochemical. As to conditions: for IC50: mean where tested more than once, ~ = standard error of pIC50 larger than 0.5; for inhibition at 10 µM: read-out: FASN % Effect @1E−05M. A digest of the protocol: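 Purified full-length human FASN (300 ng) incubated 60 min at room temperature with NADPH, [3H]-acetyl-CoA and malonyl-CoA in 100 mM KH2PO4 pH 7.5, 1 mM DTT; compound at 30 μM to 0.01 μM. [3H]-palmitate captured by SPA imaging beads; IC50 from 4-parameter fit, reported as pIC50.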

Assay [2] concerns the target T2, FASN Keto-reductase Domain (Homo sapiens, UniProt P49327).
T2 construct: 10 μL hFASN enzyme (full length, 300 ng, purified in house) and 360 μM NADPH; made in house
The experiment in a line: Fatty Acid Synthase Keto-Reductase Domain (FASN KR) Inhibition. Type of assay: biochemical. As to conditions: mean where tested more than once; read-out: FASN K-R Domain pIC50 (converted). A digest of the protocol:
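Full-length human FASN (300 ng) in 100 mM KH2PO4 pH 7.5 with 360 μM NADPH and 180 mM ethyl acetoacetate (stock); A340 decrease read over 20 min at room temperature.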

Assay [3] deals with A2780 ovarian cells. The experiment in a line: A2780 Ovarian Cell Proliferation Assay in Lipid Reduced Medium, without Palmitate. The format is cell-based. As to conditions: Homo sapiens, A2780; lipid reduced medium, without palmitate, 96 h, MTT; read-out: Proliferation A2780 w/o Palmitate pIC50 (converted). A digest of the protocol: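 A2780 cells were seeded in 10% FCS medium and switched next day to 10% lipid-reduced serum without palmitate. Compounds at 0.01–30 μM were added with 0.2% DMSO, 0.2% fatty-acid-free BSA and 0.25% ethanol final. After 96 h, MTT absorbance at 544 nm was normalized to plate controls, and IC50/pIC50 came from a 4-parameter logistic fit.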

In assay [4] the test system is A2780 ovarian cells. Briefly: A2780 Ovarian Cell Proliferation Assay in Lipid Reduced Medium, with Palmitate (control). Type of assay: cell-based. As to conditions: Homo sapiens, A2780; lipid reduced medium, 25 μM palmitate, 96 h, MTT; read-out: Proliferation A2780 with Palmitate pIC50 (converted). A digest of the protocol:
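A2780 cells were seeded in RPMI1640 with 10% FCS, then switched next day to medium with 10% lipid-reduced serum. Compound was added with final 25 μM palmitate, 0.2% fatty-acid-free BSA and 0.2% DMSO, and incubated 96 h at 37 °C. Read-out was MTT absorbance at 544 nm; pIC50 = −log(IC50) from curve fit.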

T2 sequence (P49327 whole entry, the tested form may be a part): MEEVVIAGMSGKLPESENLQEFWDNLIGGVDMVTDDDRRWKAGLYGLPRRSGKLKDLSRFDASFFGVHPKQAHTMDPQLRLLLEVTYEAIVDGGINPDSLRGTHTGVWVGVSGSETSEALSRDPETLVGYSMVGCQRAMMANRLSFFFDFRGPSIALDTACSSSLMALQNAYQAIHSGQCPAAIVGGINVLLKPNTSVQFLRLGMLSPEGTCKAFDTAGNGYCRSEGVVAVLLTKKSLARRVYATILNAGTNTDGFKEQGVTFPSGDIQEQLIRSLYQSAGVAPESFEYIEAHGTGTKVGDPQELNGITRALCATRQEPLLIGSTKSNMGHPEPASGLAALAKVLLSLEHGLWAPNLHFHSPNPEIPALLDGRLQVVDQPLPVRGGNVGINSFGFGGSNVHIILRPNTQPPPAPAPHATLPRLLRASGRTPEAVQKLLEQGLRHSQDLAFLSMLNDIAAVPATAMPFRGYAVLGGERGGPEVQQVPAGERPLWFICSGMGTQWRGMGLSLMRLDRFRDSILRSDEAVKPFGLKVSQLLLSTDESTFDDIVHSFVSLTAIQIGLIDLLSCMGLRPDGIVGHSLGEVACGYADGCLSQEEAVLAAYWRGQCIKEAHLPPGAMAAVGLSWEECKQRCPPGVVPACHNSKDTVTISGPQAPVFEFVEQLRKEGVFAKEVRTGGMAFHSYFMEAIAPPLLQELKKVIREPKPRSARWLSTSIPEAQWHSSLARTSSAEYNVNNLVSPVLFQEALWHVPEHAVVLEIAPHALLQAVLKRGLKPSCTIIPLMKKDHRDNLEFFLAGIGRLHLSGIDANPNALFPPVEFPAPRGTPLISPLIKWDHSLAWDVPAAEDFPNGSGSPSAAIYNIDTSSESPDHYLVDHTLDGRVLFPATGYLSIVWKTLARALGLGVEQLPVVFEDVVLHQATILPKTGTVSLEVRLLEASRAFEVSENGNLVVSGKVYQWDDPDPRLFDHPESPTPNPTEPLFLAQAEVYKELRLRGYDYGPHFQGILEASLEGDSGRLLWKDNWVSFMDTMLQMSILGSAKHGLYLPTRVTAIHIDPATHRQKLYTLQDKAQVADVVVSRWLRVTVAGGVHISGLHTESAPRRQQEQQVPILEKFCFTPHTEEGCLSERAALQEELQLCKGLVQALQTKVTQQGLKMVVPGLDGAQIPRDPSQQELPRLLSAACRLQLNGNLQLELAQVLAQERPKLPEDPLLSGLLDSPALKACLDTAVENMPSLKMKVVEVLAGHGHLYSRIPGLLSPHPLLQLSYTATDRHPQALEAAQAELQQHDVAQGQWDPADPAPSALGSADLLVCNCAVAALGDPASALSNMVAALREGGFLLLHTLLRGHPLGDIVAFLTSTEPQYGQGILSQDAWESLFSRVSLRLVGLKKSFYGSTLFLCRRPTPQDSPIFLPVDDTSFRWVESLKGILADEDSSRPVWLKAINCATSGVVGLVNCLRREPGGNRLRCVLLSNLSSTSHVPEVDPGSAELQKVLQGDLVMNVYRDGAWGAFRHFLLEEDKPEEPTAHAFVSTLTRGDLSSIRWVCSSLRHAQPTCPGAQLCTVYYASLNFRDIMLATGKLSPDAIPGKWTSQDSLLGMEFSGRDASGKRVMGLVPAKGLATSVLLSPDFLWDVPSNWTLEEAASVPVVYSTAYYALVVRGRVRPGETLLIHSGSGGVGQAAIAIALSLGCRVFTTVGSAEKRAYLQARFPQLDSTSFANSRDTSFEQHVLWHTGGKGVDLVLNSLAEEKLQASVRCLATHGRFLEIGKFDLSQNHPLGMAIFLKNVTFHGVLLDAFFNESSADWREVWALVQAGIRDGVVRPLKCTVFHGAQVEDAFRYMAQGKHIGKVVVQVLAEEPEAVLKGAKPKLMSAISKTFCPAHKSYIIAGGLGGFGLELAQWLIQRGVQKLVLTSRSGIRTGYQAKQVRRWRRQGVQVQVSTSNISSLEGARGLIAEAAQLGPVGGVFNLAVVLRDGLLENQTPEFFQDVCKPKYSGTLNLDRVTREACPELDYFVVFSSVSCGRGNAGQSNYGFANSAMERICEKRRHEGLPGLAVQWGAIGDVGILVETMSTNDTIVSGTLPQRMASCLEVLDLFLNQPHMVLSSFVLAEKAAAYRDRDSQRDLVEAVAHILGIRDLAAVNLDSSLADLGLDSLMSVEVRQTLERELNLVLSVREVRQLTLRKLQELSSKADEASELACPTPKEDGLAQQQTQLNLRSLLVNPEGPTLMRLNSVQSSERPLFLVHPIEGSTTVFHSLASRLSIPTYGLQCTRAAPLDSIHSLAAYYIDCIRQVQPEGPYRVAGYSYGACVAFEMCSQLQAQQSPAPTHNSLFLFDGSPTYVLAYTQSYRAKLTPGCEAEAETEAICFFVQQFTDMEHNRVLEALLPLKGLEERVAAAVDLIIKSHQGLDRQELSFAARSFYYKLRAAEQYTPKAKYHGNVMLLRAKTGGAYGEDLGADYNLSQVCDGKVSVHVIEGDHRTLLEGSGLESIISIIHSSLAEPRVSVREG
T1 sequence (P49327 whole entry): as the sequence (P49327 whole entry, the tested form may be a part) above

In the case of `Cc1ccc(C(=O)N2CCC(c3ccc(-c4cnn(C)c4)cc3)CC2)cc1NC(=O)c1ccc(C(C)C)cc1` [Compound 148, 4-isopropyl-N-(2-methyl-5-(4-(4-(1-methyl-1H-pyrazol-4-yl)phenyl)piperidine-1-carbonyl)phenyl)benzamide], the IC50 is 0.0479 µM in assay [1], 0.0537 µM in assay [2], 0.0891 µM with A2780 ovarian cells [3] and 8.32 µM in the assay with A2780 ovarian cells [4]. Besides, the inhibition at 10 µM in assay [1] was found to be 102%.
For `CCC(=O)NC1CC[C@@H](C(=O)Nc2cc(C(=O)N3CC(c4ccc(-c5ccnn5C)cc4)C3)ccc2C)C1` (stereo in doubt) [Compound 64, (1R,3S)—N-(2-methyl-5-(3-(4-(1-methyl-1H-pyrazol-5-yl)phenyl)azetidine-1-carbonyl)phenyl)-3-propionamidocyclopentanecarboxamide], in that order: 0.0347 µM, 0.0851 µM, approximately 0.302 µM, more than 10 µM and 102%.
For `COc1ccc(C(=O)Nc2cc(C(=O)N3CCC(c4ccc(-c5cnn(C)c5)cc4)CC3)ccc2C)cc1Cl` [Compound 155, 3-chloro-4-methoxy-N-(2-methyl-5-(4-(4-(1-methyl-1H-pyrazol-4-yl)phenyl)piperidine-1-carbonyl)phenyl)benzamide], in that order: 0.0479 µM, 0.0933 µM, 0.0851 µM, more than 10 µM and 98%.
On to `Cc1cccc(-c2ccc(C3CCN(C(=O)c4ccc(C)c(NC(=O)c5ccc(NC(C)C)nc5)c4)CC3)cc2)c1` [Compound 233, 6-(isopropylamino)-N-(2-methyl-5-(4-(3′-methyl-[1,1′-biphenyl]-4-yl)piperidine-1-carbonyl)phenyl)nicotinamide], for which the IC50 was 0.575 µM in assay [1], 0.776 µM in assay [2], 0.759 µM in the assay on A2780 ovarian cells [3] and 0.955 µM in the assay on A2780 ovarian cells [4]. The inhibition at 10 µM in assay [1] was found to be 72%.
For `Cc1ccc(F)c(C(=O)Nc2cc(C(=O)N3CCC(c4ccc(-c5cnn(C)c5)cc4)CC3)ccc2C)c1` [Compound 127, 2-fluoro-5-methyl-N-(2-methyl-5-(4-(4-(1-methyl-1H-pyrazol-4-yl)phenyl)piperidine-1-carbonyl)phenyl)benzamide], in that order: 0.182 µM, 0.389 µM, 0.562 µM, 4.47 µM and 98%.
As for `Cc1ccc(C(=O)N2CC[C@H](c3ccc(-c4ccnn4C)cc3)[C@@H](C)C2)cc1NC(=O)c1ccc(Cl)nc1` (racemic) [Compound #110, (±)-6-Chloro-N-(2-methyl-5-((3R,4S)-3-methyl-4-(4-(1-methyl-1H-pyrazol-5-yl)phenyl)piperidine-1-carbonyl)phenyl)nicotinamide], the IC50 in assay [1] is 0.0191 µM; in assay [2], 0.132 µM; with A2780 ovarian cells [3] it was 0.174 µM; in the assay on A2780 ovarian cells [4], 6.31 µM. In addition, in assay [1], the inhibition at 10 µM turned out to be 115%.
For `Cc1ccc(C(=O)N2CCC(c3ccc(-c4cnn(C)c4)cc3)CC2)cc1NC(=O)C1CN(CC(C)C)C1` [Compound 210, 1-isobutyl-N-(2-methyl-5-(4-(4-(1-methyl-1H-pyrazol-4-yl)phenyl)piperidine-1-carbonyl)phenyl)azetidine-3-carboxamide], in that order: 0.0851 µM, 0.309 µM, 0.11 µM, more than 10 µM and 108%.
For `Cc1ccc(C(=O)N2CCC(c3ccc4[nH]c(=O)sc4c3)CC2)cc1NC(=O)c1ccc(Cl)nc1` [Compound 48, 6-chloro-N-(2-methyl-5-(4-(2-oxo-2,3-dihydrobenzo[d]thiazol-6-yl)piperidine-1-carbonyl)phenyl)nicotinamide], in that order: 0.269 µM, 0.457 µM, 1.41 µM, more than 10 µM and 92%.
For `Cc1ccc(C(=O)N2CCC(c3ccc(-c4cnn(C)c4)cc3)CC2)cc1NC(=O)[C@@H]1CCCN1C` [Compound 238, (S)-1-methyl-N-(2-methyl-5-(4-(4-(1-methyl-1H-pyrazol-4-yl)phenyl)piperidine-1-carbonyl)phenyl)pyrrolidine-2-carboxamide], in that order: 0.479 µM, 1.02 µM, 0.741 µM, more than 10 µM and 100%.
For the compound `CCc1ccc(C(=O)N2CCC(c3ccc(-c4cnn(C)c4)cc3)CC2)cc1NC(=O)c1ccc(NC(C)C)nc1` [Compound #256, N-(2-ethyl-5-(4-(4-(1-methyl-1H-pyrazol-4-yl)phenyl)piperidine-1-carbonyl)phenyl)-6-(isopropylamino)nicotinamide], the IC50 in assay [1] was 0.0257 µM; in assay [2], 0.0603 µM; in the assay with A2780 ovarian cells [3], 0.00891 µM; in the assay with A2780 ovarian cells [4] it was 6.31 µM. For the same compound, the inhibition at 10 µM in assay [1] was found to be 116%.
For `Cc1ccc(C(=O)N2CCC(c3ccc(-c4cnn(C)c4)cc3)CC2)cc1NC(=O)C1CCN(CC(C)C)C1` (stereo not shown) [Compound 188, 1-isobutyl-N-(2-methyl-5-(4-(4-(1-methyl-1H-pyrazol-4-yl)phenyl)piperidine-1-carbonyl)phenyl)pyrrolidine-3-carboxamide], in that order: 0.0617 µM, 0.17 µM, 0.105 µM, more than 10 µM and 104%.
For `Cc1ccc(C(=O)N2CCC(c3ccc(-c4ccoc4)cc3)CC2)cc1NC(=O)c1ccc(NC(C)C)nc1` [Compound 235, N-(5-(4-(4-(furan-3-yl)phenyl)piperidine-1-carbonyl)-2-methylphenyl)-6-(isopropylamino)nicotinamide], in that order: 0.0537 µM, 0.102 µM, 0.0741 µM, 1.58 µM and 112%.
For `Cc1ccc(C(=O)N2CC(c3ccc(-c4ccncc4)cc3)C2)cc1NC(=O)c1ccc(NC(C)C)nc1` [Compound 31, 6-(isopropylamino)-N-(2-methyl-5-(3-(4-(pyridin-4-yl)phenyl)azetidine-1-carbonyl)phenyl)nicotinamide], in that order: approximately 0.0178 µM, 0.0525 µM, 0.0251 µM, 1.66 µM and 104%.
For `Cc1ccc(C(=O)N2CC(c3ccc(-c4ccnn4C)cc3)C2)cc1NC(=O)c1ccc(N(C)C(C)C)nc1` [Compound 60, 6-(isopropyl(methyl)amino)-N-(2-methyl-5-(3-(4-(1-methyl-1H-pyrazol-5-yl)phenyl)azetidine-1-carbonyl)phenyl)nicotinamide], the IC50 in assay [1] is 0.0195 µM; in assay [2] it was 0.0288 µM; with A2780 ovarian cells [3], 0.0513 µM; in the assay with A2780 ovarian cells [4], 2.75 µM. The inhibition at 10 µM in assay [1] turned out to be 103%.
For `Cc1ccc(C(=O)N2CC(c3ccc(-c4cnn(C)c4)cc3)C2)cc1NC(=O)c1ccccc1F` [Compound 82, 2-fluoro-N-(2-methyl-5-(3-(4-(1-methyl-1H-pyrazol-4-yl)phenyl)azetidine-1-carbonyl)phenyl)benzamide], in that order: 0.0229 µM, 0.0851 µM, 0.0955 µM, more than 10 µM and 98%.
For `Cc1ccc(C(=O)N2CCC(c3ccc(-c4ccccc4F)cc3)CC2)cc1NC(=O)c1ccc(NC(C)C)nc1` [Compound 224, N-(5-(4-(2′-fluoro-[1,1′-biphenyl]-4-yl)piperidine-1-carbonyl)-2-methylphenyl)-6-(isopropylamino)nicotinamide], in that order: 0.17 µM, 0.282 µM, 0.372 µM, 5.75 µM and 92%.
For `Cc1ccc(C(=O)N2CCC(c3ccc(-c4cnn(C)c4)cc3)CC2)cc1NC(=O)C1CN(C)C1` [Compound 222, 1-methyl-N-(2-methyl-5-(4-(4-(1-methyl-1H-pyrazol-4-yl)phenyl)piperidine-1-carbonyl)phenyl)azetidine-3-carboxamide], in that order: 0.0224 µM, 0.0603 µM, 0.00871 µM, more than 10 µM and 113%.
